Results reported in PMC10889769, “The Molecular and Functional Characterization of Sensory Neuron Membrane Protein 1b (SNMP1b) from Cyrtotrachelus buqueti (Coleoptera: Curculionidae)” (Insects, 2024).

target: T1, CbuqSNMP1b (Cyrtotrachelus buqueti, UniProt A0A9E9JN76); assay: Fluorescence competition binding assay with 1-NPN as fluorescent probe; settings: not given
Description: 1-NPN and all of the other chemicals (the purity being at least more than 96%) used in the binding assays were purchased from Aladdin Biochemical Technology Co., Ltd. (Shanghai, China). The Lumina fluorescence spectrophotometer (Thermo Fisher Scientific, Waltham, MA, USA) was used to perform fluorescence binding assays with a 1 cm light path quartz cuvette at room temperature. All the slit widths for both excitation and emission were 10 nm. The 1-NPN and all the other chemicals were dissolved in methanol (HPLC-grade) to a final concentration of 1 mM. The binding constant of 1-NPN was determined by titrating a 2 μM solution of the CbuqSNMP1b protein with aliquots of 2–40 μM 1-NPN concentrations. The binding of 1-NPN was measured at an excitation wavelength of 337 nm. The scanning range was 360–560 nm at each concentration and the maximum fluorescence intensities were plotted against the free ligand concentration.

T1 sequence (A0A9E9JN76 entry or part of it): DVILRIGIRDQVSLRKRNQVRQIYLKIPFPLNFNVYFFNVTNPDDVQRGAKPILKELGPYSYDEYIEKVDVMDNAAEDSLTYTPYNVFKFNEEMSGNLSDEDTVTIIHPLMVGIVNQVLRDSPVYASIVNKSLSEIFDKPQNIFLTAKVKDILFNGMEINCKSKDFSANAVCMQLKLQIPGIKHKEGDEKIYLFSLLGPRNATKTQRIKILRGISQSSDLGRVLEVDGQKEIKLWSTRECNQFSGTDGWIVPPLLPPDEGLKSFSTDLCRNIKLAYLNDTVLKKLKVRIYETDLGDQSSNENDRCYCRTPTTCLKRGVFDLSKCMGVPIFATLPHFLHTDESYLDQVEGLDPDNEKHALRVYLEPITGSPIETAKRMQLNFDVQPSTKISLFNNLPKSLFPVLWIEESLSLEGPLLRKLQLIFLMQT

Row | SMILES | IC50 [µM]
1 | Cc1cccc(C)c1 [M-xylene] | > 50
2 | c1ccc2scnc2c1 [Benzothiazole] | 13.3
3 | C=C(C)[C@H]1CC=C(C)CC1 [(+)-Limonene] | > 50
4 | C[C@@H]1CC[C@H]2C(C)(C)[C@H]3C[C@@]12CC[C@@]3(C)O [Cedrol] | > 50
5 | CC(C)=CCC/C(C)=C/CC/C(C)=C/CC/C=C(\C)CC/C=C(\C)CCC=C(C)C [Squalene] | > 50
6 | C=Cc1ccccc1 [Styrene] | > 50
7 | CCCCOC(=O)c1ccccc1C(=O)OCCCC [Dibutyl phthalate] | 10.4
8 | Oc1ccccc1 [Phenol] | 24.1

same assay, conditions: recombinant CbuqSNMP1b and 1-NPN both at 2 μM; displacement of 1-NPN; room temperature; read-out: IC50

Row | SMILES | IC50 [µM]
9 | CCCCCC(=O)OCC [Ethyl hexanoate] | > 50
10 | CCCCCCCCC=O [1-Nonanal] | > 50
11 | CCCC/C=C/C=C/C=O [trans,trans-2,4-Nonadienal] | > 50
12 | CCCCCCCC(C)=O [2-Nonanone] | > 50
13 | CCCCCCCCCCCCCCCC(=O)OC [Methyl hexadecanoate] | > 50
14 | CCCCCCCCCC=O [Decyl aldehyde] | > 50

target: T1, CbuqSNMP1b; assay: Binding of 1-NPN to CbuqSNMP1b (fluorescence titration, Scatchard analysis); settings: 2 μM CbuqSNMP1b titrated with 2–40 μM 1-NPN; Scatchard plot; read-out: dissociation constant (Kd) of the CbuqSNMP1b/1-NPN complex
Description: Binding affinities of CbuqSNMP1b to 14 volatiles (Table 1) emitted by female adults of C. buqueti were measured with the fluorescence competition binding assays using N-phenyl-1-naphthylamine (1-NPN) as the fluorescent probe. 1-NPN and all of the other chemicals (the purity being at least more than 96%) used in the binding assays were purchased from Aladdin Biochemical Technology Co., Ltd. (Shanghai, China). The Lumina fluorescence spectrophotometer (Thermo Fisher Scientific, Waltham, MA, USA) was used to perform fluorescence binding assays with a 1 cm light path quartz cuvette at room temperature. All the slit widths for both excitation and emission were 10 nm. The 1-NPN and all the other chemicals were dissolved in methanol (HPLC-grade) to a final concentration of 1 mM. The binding constant of 1-NPN was determined by titrating a 2 μM solution of the CbuqSNMP1b protein with aliquots of 2–40 μM 1-NPN concentrations. The binding of 1-NPN was measured at an excitation wavelength of 337 nm. The scanning range was 360–560 nm at each concentration and the maximum fluorescence intensities were plotted against the free ligand concentration. […]

Row | SMILES | Kd [µM]
15 | c1ccc(Nc2cccc3ccccc23)cc1 [1-NPN, N-phenyl-1-naphthylamine] | 13.3
